Measurements published in US5210193A, “Piperazine derivatives” (American Cyanamid Company, priority 1990, dated 1993).
≈ marks a conversion by molar mass, not a printed value. Like-named read-outs stand apart in the source and are kept apart here.

Tests used:
Assay in all cases: in vitro antibacterial MIC, agar plate dilution
Assay type in all cases: cell-based
[1] = system: Escherichia coli ATCC 25922; conditions: 35° C.
Description: (§1) The in vitro antimicrobial spectrum of the compounds of ths invention were determined by the agar plate dilution method with Mueller-Hinton agar and an inoculum of each test organism of approximately 10^4 colony forming units delivered by the Steers replicating device. The minimal inhibitory concentration (MIC) in mcg/ml is defined as the lowest concentration of test compound that inhibited visible growth after 18 hours incubation at 35° C. Results are given in Table I, with the test compounds identified by the number of their hereinafter described examples.

[2] = system: Escherichia coli CMC 84-11; conditions: 35° C.
Description: as §1

Escherichia coli LL 311 = conditions: 35° C.
Description: as §1

[3] = system: Morganella morganii CMC 84-37; conditions: 35° C.
Description: as §1

[4] = system: Proteus rettgeri CMC 84-41; conditions: 35° C.
Description: as §1

[5] = system: Pseudomonas aeruginosa LL-1244; conditions: 35° C.
Description: as §1

[6] = system: Pseudomonas aeruginosa VGH 84-4; conditions: 35° C.
Description: as §1

[7] = system: Serratia marcescens K 84-18; conditions: 35° C.
Description: as §1

[8] = system: Serratia marcescens VGH 84-30; conditions: 35° C.
Description: as §1

[9] = system: Staphylococcus aureus ATTC 29213; conditions: 35° C.
Description: as §1

[10] = system: Staphylococcus aureus Smith; conditions: 35° C.
Description: as §1

[11] = system: Staphylococcus aureus VGH 84-45; conditions: 35° C.
Description: as §1

[12] = system: Streptococcus faecalis UCI 85-19; conditions: 35° C.
Description: as §1

[13] = system: Streptococcus faecalis VGH 84-65; conditions: 35° C.
Description: as §1

[14] = system: Enterobacter aerogenes VGH 84-36; conditions: Klebsiella aerogenes, VGH8436, 18 hours, 35° C., read-out: MIC
Description: as §1

[15] = system: Enterobacter cloacae VGH 84-37; conditions: Enterobacter cloacae, VGH8437, 18 h, 35° C., read-out: MIC
Description: as §1

Klebsiella pneumoniae AD = conditions: Klebsiella pneumoniae, 18 h, 35° C., read-out: MIC
Description: as §1

[16] = system: Klebsiella pneumoniae MOR 84-4; conditions: Klebsiella pneumoniae, MOR844, 18 h, 35° C., read-out: MIC
Description: as §1

[17] = system: Morganella morganii VGH 84-11; conditions: VGH8411, 18 hours, 35° C., read-out: MIC
Description: as §1

[18] = system: Staphylococcus aureus ATCC 25913; conditions: ATCC25913, 18 hours, 35° C.
Description: as §1

[19] = system: Streptococcus faecalis ATTC 29212; conditions: Enterococcus faecalis, ATTC29212, 18 hours, 35° C., read-out: MIC
Description: as §1

[20] = Escherichia coli, ATCC25922, 18 h, read-out: MIC
[21] = Escherichia coli, CMC8411, 18 h, read-out: MIC
[22] = Escherichia coli, LL311, 18 h, read-out: MIC
[23] = Morganella morganii, CMC8437, 18 h, read-out: MIC
[24] = Providencia rettgeri, CMC8441, 18 h, read-out: MIC
[25] = Pseudomonas aeruginosa, LL1244, 18 h, read-out: MIC
[26] = Pseudomonas aeruginosa, VGH844, 18 h, read-out: MIC
[27] = Serratia marcescens, K8418, 18 h, read-out: MIC
[28] = Serratia marcescens, VGH8430, 18 h, read-out: MIC
[29] = Staphylococcus aureus, ATTC29213, 18 h, read-out: MIC
[30] = Staphylococcus aureus, 18 h, read-out: MIC
[31] = Staphylococcus aureus, VGH8445, 18 h, read-out: MIC
[32] = Enterococcus faecalis, UCI8519, 18 h, read-out: MIC
[33] = Enterococcus faecalis, VGH8465, 18 h, read-out: MIC

Row | SMILES | MIC [1, 20] [µg/mL] | MIC [2, 21] [µg/mL] | MIC (Escherichia coli LL 311; [22]) [µg/mL] | MIC [3, 23] [µg/mL] | MIC [4, 24] [µg/mL] | MIC [5, 25] [µg/mL] | MIC [6, 26] [µg/mL] | MIC [7, 27] [µg/mL] | MIC [8, 28] [µg/mL] | MIC [9, 29] [µg/mL] | MIC [10, 30] [µg/mL] | MIC [11, 31] [µg/mL] | MIC [12, 32] [µg/mL] | MIC [13, 33] [µg/mL] | MIC [14] [µg/mL] | MIC [15] [µg/mL] | MIC (Klebsiella pneumoniae AD) [µg/mL] | MIC [16] [µg/mL] | MIC [17] [µg/mL] | MIC [18] [µg/mL] | other results
1 | CCn1cc(C(=O)O)c(=O)c2cc(F)c(N3CCN(C)C(CF)C3)c(F)c21 (single isomer, unassigned; (+)) [Example 115, (+)-1-Ethyl-6,8-difluoro-7-[3-(fluoromethyl)-4-methyl-1-piperazinyl]-1,4-dihydro-4-oxo-3-quinolinecarboxylic acid] |  |  |  |  |  |  |  |  |  |  |  |  |  |  |  |  |  |  |  |  | MIC ([1]; 18 hours): 0.25 µg/mL (≈ 0.652 µM); MIC ([2]; 18 hours): 0.5 µg/mL (≈ 1.3 µM); MIC (Escherichia coli LL 311; 18 hours): 0.5 µg/mL (≈ 1.3 µM); MIC ([3]; 18 hours): 1 µg/mL (≈ 2.61 µM); MIC ([4]; 18 hours): 2 µg/mL (≈ 5.22 µM); MIC ([5]; 18 hours): 16 µg/mL (≈ 41.7 µM); MIC ([6]; 18 hours): 8 µg/mL (≈ 20.9 µM); MIC ([7]; 18 hours): 2 µg/mL (≈ 5.22 µM); MIC ([8]; 18 hours): 32 µg/mL (≈ 83.5 µM); MIC ([9]; 18 hours): 8 µg/mL (≈ 20.9 µM); MIC ([10]; 18 hours): 0.5 µg/mL (≈ 1.3 µM); MIC ([11]; 18 hours): 0.5 µg/mL (≈ 1.3 µM); MIC ([12]; 18 hours): 8 µg/mL (≈ 20.9 µM); MIC ([13]; 18 hours): 8 µg/mL (≈ 20.9 µM)
2 | CCn1cc(C(=O)O)c(=O)c2cc(F)c(N3CCN(C)C(CF)C3)c(F)c21 (racemic) [Example 113, Racemic 1-Ethyl-6,8-difluoro-7-[3-(fluoromethyl)-4-methyl-1-piperazinyl]-1,4-dihydro-4-oxo-3-quinolinecarboxylic acid] | 0.25 (≈ 0.652 µM) | 0.25 (≈ 0.652 µM) | 0.5 (≈ 1.3 µM) | 1 (≈ 2.61 µM) | 2 (≈ 5.22 µM) | 32 (≈ 83.5 µM) | 8 (≈ 20.9 µM) | 2 (≈ 5.22 µM) | 16 (≈ 41.7 µM) | 8 (≈ 20.9 µM) | 0.25 (≈ 0.652 µM) | 0.25 (≈ 0.652 µM) | 8 (≈ 20.9 µM) | 8 (≈ 20.9 µM) |  |  |  |  |  |  | 
3 | CCn1cc(C(=O)O)c(=O)c2cc(F)c(N3CCNC(c4ccccn4)C3)c(F)c21 (centres unmarked) [Example 116] | 0.06 (≈ 0.145 µM) | 0.06 (≈ 0.145 µM) | 0.12 (≈ 0.29 µM) | 0.25 (≈ 0.603 µM) | 0.5 (≈ 1.21 µM) | 8 (≈ 19.3 µM) | 4 (≈ 9.65 µM) | 0.5 (≈ 1.21 µM) | 8 (≈ 19.3 µM) | 2 (≈ 4.83 µM) | 0.12 (≈ 0.29 µM) | 0.12 (≈ 0.29 µM) | 2 (≈ 4.83 µM) | 2 (≈ 4.83 µM) |  |  |  |  |  |  | 
4 | CCn1cc(C(=O)O)c(=O)c2c(F)c(F)c(N3CCNC(C)C3)c(F)c21 (centres unmarked) [Example 91, 1-Ethyl-5,6,8-trifluoro-1,4-dihydro-7-(3-methyl-1-piperazinyl)-4-oxo-3-quinolinecarboxylic acid] | 0.5 (≈ 1.35 µM) | 0.25 (≈ 0.677 µM) | 0.25 (≈ 0.677 µM) | 0.12 (≈ 0.325 µM) | 0.25 (≈ 0.677 µM) | 8 (≈ 21.7 µM) | 8 (≈ 21.7 µM) | 0.5 (≈ 1.35 µM) | 16 (≈ 43.3 µM) | 4 (≈ 10.8 µM) | 2 (≈ 5.42 µM) | 2 (≈ 5.42 µM) | 32 (≈ 86.6 µM) | 32 (≈ 86.6 µM) |  |  |  |  |  |  | 
5 | CCn1cc(C(=O)O)c(=O)c2cc(F)c(N3CCNC(C(C)(F)F)C3)c(F)c21 (centres unmarked) [Example 117] | 0.06 (≈ 0.149 µM) | 0.12 (≈ 0.299 µM) | 0.12 (≈ 0.299 µM) | 0.25 (≈ 0.623 µM) | 0.5 (≈ 1.25 µM) | 8 (≈ 19.9 µM) | 4 (≈ 9.97 µM) | 0.25 (≈ 0.623 µM) | 8 (≈ 19.9 µM) | 2 (≈ 4.98 µM) | 0.5 (≈ 1.25 µM) | 0.5 (≈ 1.25 µM) | 8 (≈ 19.9 µM) | 8 (≈ 19.9 µM) |  |  |  |  |  |  | 
6 | O=C(O)c1cn(-c2ccc(F)cc2)c2cc(N3CCNC(c4ccsc4)C3)c(F)cc2c1=O (centres unmarked) [Example 100] | 0.25 (≈ 0.535 µM) | 0.12 (≈ 0.257 µM) | 0.25 (≈ 0.535 µM) | 0.5 (≈ 1.07 µM) | 1 (≈ 2.14 µM) | 16 (≈ 34.2 µM) | 8 (≈ 17.1 µM) | 4 (≈ 8.56 µM) | 64 (≈ 137 µM) | 0.06 (≈ 0.128 µM) | 0.008 (≈ 0.0171 µM) | 0.03 (≈ 0.0642 µM) | 2 (≈ 4.28 µM) | 2 (≈ 4.28 µM) |  |  |  |  |  |  | 
7 | COCC1CN(c2cc3c(cc2F)c(=O)c(C(=O)O)cn3C2CC2)CCN1 (centres unmarked) [Example 81, 1-Cyclopropyl-6-fluoro-1,4-dihydro-7-[3-(methoxymethyl)-1-pioerazinyl]-4-oxo-3-quinolinecarboxylic acid] | 0.25 (≈ 0.666 µM) | 0.03 (≈ 0.0799 µM) | 0.03 (≈ 0.0799 µM) | 0.06 (≈ 0.16 µM) | 0.12 (≈ 0.32 µM) | 8 (≈ 21.3 µM) | 2 (≈ 5.33 µM) | 0.5 (≈ 1.33 µM) | 4 (≈ 10.7 µM) | 0.25 (≈ 0.666 µM) | 0.12 (≈ 0.32 µM) | 0.12 (≈ 0.32 µM) | 2 (≈ 5.33 µM) | 2 (≈ 5.33 µM) |  |  |  |  |  |  | 
8 | CCn1cc(C(=O)O)c(=O)c2cc(F)c(N3CCNC(c4cc(C)sc4C)C3)cc21 (centres unmarked) [Example 48, 7-[3-(2,5-Dimethyl-3-thienyl)-1-piperazinyl]-1-ethyl-6-fluoro-1,4-dihydro-4-oxo-3-quinolinecarboxylic acid] | 1 (≈ 2.33 µM) | 1 (≈ 2.33 µM) |  |  | 2 (≈ 4.66 µM) |  | 32 (≈ 74.5 µM) |  |  |  | 0.25 (≈ 0.582 µM) |  |  |  | 2 (≈ 4.66 µM) | 2 (≈ 4.66 µM) | 1 (≈ 2.33 µM) | 2 (≈ 4.66 µM) | 2 (≈ 4.66 µM) | 0.25 (≈ 0.582 µM) | MIC [19]: 0.25 µg/mL (≈ 0.582 µM)
9 | CCn1cc(C(=O)O)c(=O)c2cc(F)c(N3CCN(C)C(c4ccn(S(=O)(=O)c5ccccc5)c4)C3)cc21 (centres unmarked) [Example 49] | 32 (≈ 59.4 µM) | 64 (≈ 119 µM) |  |  | 256 (≈ 475 µM) |  | > 256 |  |  |  | 0.5 (≈ 0.928 µM) |  |  |  | 256 (≈ 475 µM) | 256 (≈ 475 µM) | 64 (≈ 119 µM) | 256 (≈ 475 µM) | 256 (≈ 475 µM) | 1 (≈ 1.86 µM) | MIC [19]: 64 µg/mL (≈ 119 µM)
10 | CCn1cc(C(=O)O)c(=O)c2cc(F)c(N3CCN(C)C(CF)C3)cc21 (centres unmarked) [Example 25, 1-Ethyl-6-fluoro-7-[3-(fluoromethyl)-4-methyl-1-piperazinyl]-1,4-dihydro-4-oxo-3-quinolinecarboxylic acid] | 0.25 (≈ 0.684 µM) | 0.5 (≈ 1.37 µM) |  |  | 1 (≈ 2.74 µM) |  | 2 (≈ 5.47 µM) |  |  |  | 0.5 (≈ 1.37 µM) |  |  |  | 2 (≈ 5.47 µM) | 1 (≈ 2.74 µM) | 0.5 (≈ 1.37 µM) | 1 (≈ 2.74 µM) | 1 (≈ 2.74 µM) | 0.5 (≈ 1.37 µM) | MIC [19]: 8 µg/mL (≈ 21.9 µM)
